Measurements taken from patent US5958946A, “Modulation of hair growth” (priority 1998, dated 1999).

These molecules were tested on flank organs (assay: Flank organ diameter by caliper after topical treatment). Conditions: topical application.
Assay type: in vivo, Golden Syrian hamster
Description: It was believed that the diversion of testosterone away from its biologically active species to a glucuronide or sulfonate conjugate would have effects on the flank organs of the Golden Syrian hamster since testosterone is known to regulate the existence of these unique organs. The diameter of flank organs were assessed using a caliper following topical treatment of the hamsters with ethoxyquin or 5,7-dihydroxy-4'-methoxyflavone as described in the hair mass assay section.

Compound | effect on flank organ diameter (in words)
COc1ccc(-c2cc(=O)c3c(O)cc(O)cc3o2)cc1 [5,7-dihydroxy-4'-methoxyflavone] | decrease in flank organ diameter
CCOc1ccc2c(c1)C(C)=CC(C)(C)N2 [ethoxyquin] | decrease in flank organ diameter

Same assay, conditions: topical treatment as in the hair mass assay

Compound | % Decrease (flank organ diameter) | Decrease (mm) (flank organ diameter, treated vs vehicle) | Treated FO (mm) (flank organ diameter)
COc1ccc(-c2cc(=O)c3c(O)cc(O)cc3o2)cc1 [5,7-dihydroxy-4'-methoxyflavone] | 12 ± 5% | 1.04 ± .46 mm | 8.04 ± .29 mm
CCOc1ccc2c(c1)C(C)=CC(C)(C)N2 [ethoxyquin] | 19 ± 4% | 1.65 ± .37 mm | 7.18 ± .26 mm

What follows are molecules tested on glucuronidation of testosterone (UGTs) (assay: Induction of testosterone glucuronide formation in flank organ homogenates). Conditions: flank organ protein, [14C]-testosterone 125 μM, UDP-glucuronic acid 5 mM, 37° C., 60 minutes.
Assay type: biochemical, Golden Syrian hamster
Description: An assay was performed to evaluate whether some of the compounds tested in the Golden Syrian Hamster assay caused an induction of testosterone glucuronide formation.
Flank organ homogenates were prepared by adding 4 flank organs into 2 mL of a buffer containing 25 mM Tris/50 mM sucrose, pH 7.4 and homogenized with a Polytron (Brinkman Instruments) while keeping the mixture on ice. The glucuronidation of testosterone was measured by incubating the 20 μl of the flank organ protein (1 mg/ml) with [^14 C]-testosterone testosterone 125 μM and UDP-glucuronic acid (5 mM) in the presence of buffer containing 0.5M Tris, pH 7.5 and 0.1M MgCl2. The total reaction mixture volume was 100 μl. Assay mixtures were incubated at 37° C. for 60 minutes, and reactions were stopped with the addition of 3.5 ml methylene chloride. An aqueous carrier (250 μl water) was added to each reaction mixture which was then shaken and centrifuged. The unmetabolized [^14 C]-testosterone remained in the organic phase whereas the testosterone glucuronide partitioned into the aqueous phase, and was quantitated by scintillation spectrometry.

Compound | % Induction (testosterone glucuronide formation)
COc1ccc(-c2cc(=O)c3c(O)cc(O)cc3o2)cc1 [5,7-dihydroxy-4'-methoxyflavone] | 120%
CCOc1ccc2c(c1)C(C)=CC(C)(C)N2 [ethoxyquin] | 214%
CCC1(c2ccccc2)C(=O)NC(=O)NC1=O [phenobarbital, reference compound] | 113%
COc1ccc(O)c(C(C)(C)C)c1 [butylhydroxyanisole] | 178%

These molecules were tested on androgen-stimulated hair growth of flank organs (assay: Golden Syrian hamster assay (flank organ hair mass)). Conditions: topical, 10% dose, 10 μl once a day, thirteen applications; vehicle A, B or C per compound.
Assay type: in vivo
Text: Male intact Golden Syrian hamsters are considered acceptable models for human beard hair growth and other androgen-stimulated hair growth in that they display oval shaped flank organs, one on each side, each about 8 mm. in major diameter, which grow thick black and coarse hair similar to human beard hair. These organs produce hair in response to androgens in the hamster. To evaluate the effectiveness of a composition in reducing androgen-stimulated hair growth, the flank organs of each of a group of hamsters are shaved. To one organ of each animal 10 μl. of composition vehicle alone once a day is applied, while to the other organ of each animal an equal amount of the composition (including the relevant compound or compounds). After thirteen applications (one application per day for five days a week), the flank organs are shaved and the amount of recovered hair (hair mass) from each is weighed. Percent-reduction of hair growth is calculated by subtracting the hair mass (mg) value of the test compound treated side from the hair mass value of the vehicle treated side; the delta value obtained is then divided by the hair mass value of the vehicle treated side, and the resultant number is multiplied by 100.
The above-described assay will be referred to herein as the "Golden Syrian hamster" assay. Preferred compositions provide a reduction in hair growth of at least about 30%, more preferably at least about 50%, and most preferably at least about 60% when tested in the Golden Syrian hamster assay.
A number of compositions containing compounds that induce or activate UGTs for which testosterone is a substrate were tested in the Golden Syrian hamster assay; the results are provided in Table I: […]

Compound | Left(mg) (hair mass of the compound-treated flank organ)
COc1ccc(-c2cc(=O)c3c(O)cc(O)cc3o2)cc1 [5,7-dihydroxy-4'-methoxyflavone] | 1.00 ± .22 mg
O=C1C[C@@H](c2ccc(O)cc2)Oc2cc(O)cc(O)c21 [naringenin] | 1.42 ± .18 mg
CCOc1ccc2c(c1)C(C)=CC(C)(C)N2 [ethoxyquin] | 0.55 ± .16 mg
Cc1cc(C(C)(C)C)c(O)c(C(C)(C)C)c1 [butylhydroxytoluene] | 1.74 ± .38 mg
CCC1(c2ccccc2)C(=O)NC(=O)NC1=O [phenobarbital, reference compound] | 0.89 ± .16 mg
O=C1CC(c2ccccc2)Oc2ccccc21 (centres unmarked) [flavanone] | 1.91 ± .22 mg
COc1ccc(O)c(C(C)(C)C)c1 [butylhydroxyanisole] | 0.92 ± .24 mg

Same assay, conditions: topical, 10% dose, thirteen applications; vehicle A, B or C per compound

Compound | % Inhibition (percent reduction of hair growth vs vehicle-treated side)
COc1ccc(-c2cc(=O)c3c(O)cc(O)cc3o2)cc1 [5,7-dihydroxy-4'-methoxyflavone] | 62 ± 9%
O=C1C[C@@H](c2ccc(O)cc2)Oc2cc(O)cc(O)c21 [naringenin] | 40 ± 8%
CCOc1ccc2c(c1)C(C)=CC(C)(C)N2 [ethoxyquin] | 75 ± 7%
Cc1cc(C(C)(C)C)c(O)c(C(C)(C)C)c1 [butylhydroxytoluene] | 22 ± 18%
CCC1(c2ccccc2)C(=O)NC(=O)NC1=O [phenobarbital, reference compound] | 51 ± 11%
O=C1CC(c2ccccc2)Oc2ccccc21 (centres unmarked) [flavanone] | 17 ± 10%
COc1ccc(O)c(C(C)(C)C)c1 [butylhydroxyanisole] | 61 ± 9%
